A compilation of properties of binary mixtures (doi:10.1016/j.electacta.2009.09.024)

Assay: xn = mol fraction of the nth substance listed
Conditions: 100 kPa, x2 = 0.25

O=S(=O)([N-]S(=O)(=O)C(F)(F)F)C(F)(F)F.[Rb+] + O=S(=O)([N-]S(=O)(=O)C(F)(F)F)C(F)(F)F.[Li+]
Conditions	electrical conductivity [S/m]	viscosity [mPa·s]
442.2 K	0.822	–
442.5 K	–	63.2
452.2 K	1.05	–
462.7 K	1.28	–
473.7 K	1.52	–
473.9 K	–	28.1
482.9 K	1.86	–
492.3 K	2.15	–
492.6 K	–	17.9
502.4 K	2.48	–
502.5 K	–	14.3
512.8 K	–	11.8
523.1 K	3.2	–
543.3 K	4.03	–
543.5 K	–	7.21
551.9 K	4.33	–
552.5 K	–	6.61
561.2 K	4.79	–
561.8 K	–	5.8
571.1 K	5.08	–
